Structures are written as SMILES.

The source of these data is ChEMBL document CHEMBL5226352, “Inhibition of AlkB Nucleic Acid Demethylases: Promising New Epigenetic Targets” (J Med Chem, 2021).

This data set is described as follows: Oral bioavailability in rat. Format: ADME, organism-based. The conditions noted are these: in vivo.

Usually bioavailability stands for the share of a dose that reaches the circulation, judged against a reference dose that is usually intravenous. A low value points to poor availability. Take `Cc1ccc2[nH]c(-n3nc(C)cc3O)nc2c1`: the bioavailability came to 7.2%.
